Experimental data reported in patent publication US11053234B2 (GlaxoSmithKline Intellectual Property Development Limited, priority 2016, dated 2021).
Counter-ions that a name gives are not always drawn.

Target: T1, haematopoietic prostaglandin D synthase (H-PGDS) (Homo sapiens, UniProt O60760)
T1 construct: Full length human H-PGDS cDNA (Invitrogen Ultimate ORF 10H13026) was amplified by PCR; 6-His (N); TEV protease cleavage site (N); made in house; host or cells: E. coli BL21 (DE3*), vector pET22b+
Test: H-PGDS RapidFire high throughput mass spectrometry assay (conversion of PGH2 to PGD2)
Assay type: biochemical
Conditions: 10 nM H-PGDS, PGH2 formed in situ by COX-2 from arachidonic acid; read-out: Potency Range (mean pIC50) (converted)
How it was run: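 RapidFire SPE–MS read-out calculated percent conversion from relative PGD2 and PGF2α (substrate surrogate) levels. Recombinant full-length human H-PGDS (His-tag, E. coli) turned over PGH2, produced in situ at ˜10 μM by human COX-2 (FLAG-tag, Sf9 cells) acting on arachidonic acid.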

T1 sequence (O60760 whole entry): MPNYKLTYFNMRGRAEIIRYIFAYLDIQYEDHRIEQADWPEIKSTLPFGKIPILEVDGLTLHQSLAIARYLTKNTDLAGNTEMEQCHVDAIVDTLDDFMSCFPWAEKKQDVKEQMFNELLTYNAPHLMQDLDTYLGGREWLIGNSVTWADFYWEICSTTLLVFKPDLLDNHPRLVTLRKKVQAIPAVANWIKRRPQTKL

SMILES | IC50
O=C(Nc1nccs1)[C@H]1C[C@H](Oc2ccc(F)c3cccnc23)C1 [Example 291, (trans)-3-((5-Fluoroquinolin-8-yl)oxy)-N-(thiazol-2-yl)cyclobutanecarboxamide, trifluoroacetic acid salt] | 100 to 1000 nM
O=C(NC1CN(c2cnccn2)C1)[C@H]1C[C@H](Oc2cccc3scnc23)C1 [Example 246, (trans)-3-(Benzo[d]thiazol-4-yloxy)-N-(1-(pyrazin-2-yl)azetidin-3-yl)cyclobutanecarboxamide] | 10 to 79.4 nM
O=C(Nc1nc(C2CC2)ns1)N1CC(Oc2cccc3scnc23)C1 [Example 338, 3-(Benzo[d]thiazol-4-yloxy)-N-(3-cyclopropyl-1,2,4-thiadiazol-5-yl)azetidine-1-carboxamide] | < 10 nM
NC(=O)c1ccc(N2CC(NC(=O)[C@H]3C[C@H](Oc4cccc5scnc45)C3)C2)nc1 [Example 36, 6-(3-((trans)-3-(Benzo[d]thiazol-4-yloxy)cyclobutanecarboxamido)azetidin-1-yl)nicotinamide] | 10 to 79.4 nM
CC(=O)c1csc(NC(=O)[C@H]2C[C@H](Oc3cccc4cccnc34)C2)n1 [Example 186, trans-N-(4-Acetylthiazol-2-yl)-3-(quinolin-8-yloxy)cyclobutanecarboxamide] | 10 to 79.4 nM
CC(O)([C@H]1CC[C@H](NC(=O)[C@H]2C[C@H](Oc3cc(F)ccc3OC(F)F)C2)CC1)C(F)(F)F (mixture of isomers) [Example 28, Racemic (trans)-3-(2-(Difluoromethoxy)-5-fluorophenoxy)-N-((trans)-4-(1,1,1-trifluoro-2-hydroxypropan-2-yl)cyclohexyl)cyclobutanecarboxamide] | 10 to 79.4 nM
O=C(NC1CN(c2ccc(F)cn2)C1)N1CC(Oc2cc(F)cc3scnc23)C1 [Example 119, 3-((6-Fluorobenzo[d]thiazol-4-yl)oxy)-N-(1-(5-fluoropyridin-2-yl)azetidin-3-yl)azetidine-1-carboxamide] | 10 to 79.4 nM
COc1ccc(F)cc1O[C@H]1C[C@H](C(=O)NC2CCN(c3nnnn3C)CC2)C1 [Example 152, (trans)-3-(5-Fluoro-2-methoxyphenoxy)-N-(1-(1-methyl-1H-tetrazol-5-yl)piperidin-4-yl)cyclobutanecarboxamide] | 10 to 79.4 nM
CC(=O)N1CCCC(NC(=O)N2CC(Oc3cccc4scnc34)C2)C1 (racemic) [Example 92, Racemic N-(1-Acetylpiperidin-3-yl)-3-(benzo[d]thiazol-4-yloxy)azetidine-1-carboxamide] | 100 to 1000 nM
O=C(NC1CCc2ccccc21)[C@H]1C[C@H](Oc2cccc(Cl)c2)C1 (mixture of isomers) [Example 286, Racemic (trans)-3-(3-Chlorophenoxy)-N-(2,3-dihydro-1H-inden-1-yl)cyclobutanecarboxamide] | 10 to 79.4 nM
CC(C)(O)[C@H]1CC[C@H](NC(=O)[C@H]2C[C@H](Oc3cc(F)ccc3OC(F)F)C2)CC1 [Example 34, (trans)-3-(2-(Difluoromethoxy)-5-fluorophenoxy)-N-((trans)-4-(2-hydroxypropan-2-yl)cyclohexyl)cyclobutanecarboxamide] | 10 to 79.4 nM
O=C(Nc1nccs1)[C@H]1C[C@H](Oc2cccc(Cl)c2)C1 [Example 287, (trans)-3-(3-Chlorophenoxy)-N-(thiazol-2-yl)cyclobutanecarboxamide] | 10 to 79.4 nM
CC(C)c1nnc(NC(=O)[C@H]2C[C@H](Oc3cccc4cccnc34)C2)s1 [Example 198] | 10 to 79.4 nM
O=C(Nc1ccn[nH]1)[C@H]1C[C@H](Oc2cccc3scnc23)C1 [Example 301] | 100 to 1000 nM
O=C(N[C@H]1CC[C@H](N2CCOC2=O)CC1)N1CC(Oc2cccc3scnc23)C1 [Example 103, 3-(Benzo[d]thiazol-4-yloxy)-N-((trans)-4-(2-oxooxazolidin-3-yl)cyclohexyl)azetidine-1-carboxamide] | 100 to 1000 nM
O=C(NC1CN(c2ccc(F)cn2)C1)[C@H]1C[C@H](Oc2cccc3scnc23)C1 [Example 44, (trans)-3-(Benzo[d]thiazol-4-yloxy)-N-(1-(5-fluoropyridin-2-yl)azetidin-3-yl)cyclobutanecarboxamide] | 10 to 79.4 nM
C[C@H]1[C@@H](Oc2cccc3scnc23)CN1C(=O)N[C@H]1CC[C@H](C(C)(C)O)CC1 [Example 304, (2S,3S)-3-(Benzo[d]thiazol-4-yloxy)-N-((trans)-4-(2-hydroxypropan-2-yl)cyclohexyl)-2-methylazetidine-1-carboxamide] | 10 to 79.4 nM
O=C(NC1CN(c2ncccn2)C1)N1CC(Oc2cccc3scnc23)C1 [Example 107, 3-(Benzo[d]thiazol-4-yloxy)-N-(1-(pyrimidin-2-yl)azetidin-3-yl)azetidine-1-carboxamide] | 10 to 79.4 nM

SMILES | IC50
CCOC(=O)c1cnc(N2CC(NC(=O)[C@H]3C[C@H](Oc4cccc5scnc45)C3)C2)o1 [Example 48, Ethyl 2-(3-((trans)-3-(benzo[d]thiazol-4-yloxy)cyclobutanecarboxamido)azetidin-1-yl)oxazole-5-carboxylate] | 100 to 1000 nM
O=C(Nc1cccc(N2CCOCC2)c1)N1CC(Oc2cccc3scnc23)C1 [Example 309, 3-(Benzo[d]thiazol-4-yloxy)-N-(3-morpholinophenyl)azetidine-1-carboxamide] | 100 to 1000 nM
CC(C)(C)c1nnc(NC(=O)N2CC(Oc3cccc4scnc34)C2)s1 [Example 332] | < 10 nM
O=C(NC1CN(c2ncccn2)C1)[C@H]1C[C@H](Oc2cccc3scnc23)C1 [Example 80, (trans)-3-(Benzo[d]thiazol-4-yloxy)-N-(1-(pyrimidin-2-yl)azetidin-3-yl)cyclobutanecarboxamide] | 10 to 79.4 nM
O=C(NC1CN(c2ccnc(Cl)n2)C1)[C@H]1C[C@H](Oc2cccc3scnc23)C1 [Example 69, (trans)-3-(Benzo[d]thiazol-4-yloxy)-N-(1-(2-chloropyrimidin-4-yl)azetidin-3-yl)cyclobutanecarboxamide] | 10 to 79.4 nM
O=C(NC1CN(c2ncc(F)cn2)C1)[C@H]1C[C@H](Oc2cccc3scnc23)C1 [Example 78, (trans)-3-(Benzo[d]thiazol-4-yloxy)-N-(1-(5-fluoropyrimidin-2-yl)azetidin-3-yl)cyclobutanecarboxamide] | 10 to 79.4 nM
N#Cc1cnc(NC(=O)[C@H]2C[C@H](Oc3cccc4cccnc34)C2)s1 [Example 190, (trans)-N-(5-Cyanothiazol-2-yl)-3-(quinolin-8-yloxy)cyclobutanecarboxamide] | 10 to 79.4 nM
Cc1n[nH]c(NC(=O)N2CC(Oc3cccc4scnc34)C2)c1C#N [Example 329, 3-(Benzo[d]thiazol-4-yloxy)-N-(4-cyano-3-methyl-1H-pyrazol-5-yl)azetidine-1-carboxamide] | 100 to 1000 nM
CC(C)(O)[C@H]1CC[C@H](NC(=S)N2CC(Oc3cccc4scnc34)C2)CC1 [Example 95, 3-(Benzo[d]thiazol-4-yloxy)-N-((trans)-4-(2-hydroxypropan-2-yl)cyclohexyl) azetidine-1-carbothioamide] | 10 to 79.4 nM
CC(C)(O)[C@@H]1CC[C@@H](NC(=O)[C@H]2C[C@H](Oc3cccc4scnc34)C2)CO1 (racemic) [Example 51, Racemic (trans)-3-(Benzo[d]thiazol-4-yloxy)-N-((trans)-6-(2-hydroxypropan-2-yl)tetrahydro-2H-pyran-3-yl)cyclobutanecarboxamide] | 10 to 79.4 nM
CC(C)(O)[C@H]1CC[C@H](NC(=O)[C@H]2C[C@H](Oc3ccc(F)c4cccnc34)C2)CC1 [Example 292, (trans)-3-((5-Fluoroquinolin-8-yl)oxy)-N-((trans)-4-(2-hydroxypropan-2-yl)cyclohexyl)cyclobutanecarboxamide] | 100 to 1000 nM
CC(C)(O)[C@H]1CC[C@H](NC(=O)[C@H]2C[C@H](Oc3cccc4cc(F)cnc34)C2)CC1 [Example 280, (trans)-3-((3-Fluoroquinolin-8-yl)oxy)-N-((trans)-4-(2-hydroxypropan-2-yl)cyclohexyl)cyclobutanecarboxamide] | 100 to 1000 nM
O=C(NC1CN(c2ccnc(Cl)n2)C1)[C@H]1C[C@H](Oc2cc(F)ccc2OC(F)F)C1 [Example 6, (trans)-N-(1-(2-Chloropyrimidin-4-yl)azetidin-3-yl)-3-(2-(difluoromethoxy)-5-fluorophenoxy)cyclobutanecarboxamide] | 10 to 79.4 nM
O=C(Nc1ccc(N2CCOCC2)cc1)N1CC(Oc2cccc3scnc23)C1 [Example 310, 3-(Benzo[d]thiazol-4-yloxy)-N-(4-morpholinophenyl)azetidine-1-carboxamide] | 10 to 79.4 nM
O=C(NC1CCCCC1)N[C@H]1C[C@H](NC(=O)[C@H]2C[C@H](Oc3cccc4scnc34)C2)C1 [Example 67, (trans)-3-(Benzo[d]thiazol-4-yloxy)-N-((trans)-3-(3-cyclohexylureido)cyclobutyl)cyclobutanecarboxamide] | 100 to 1000 nM
COc1ccc(F)cc1O[C@H]1C[C@H](C(=O)NC2CCN(c3ncc(C#N)s3)C2)C1 (mixture of isomers) [Example 144, Racemic (trans)-N-(1-(5-Cyanothiazol-2-yl)pyrrolidin-3-yl)-3-(5-fluoro-2-methoxyphenoxy)cyclobutanecarboxamide] | 10 to 79.4 nM
CC(N[C@H]1CC[C@H](NC(=O)[C@H]2C[C@H](Oc3cccc4cccnc34)C2)CC1)C(F)F (mixture of isomers) [Example 180, Racemic (trans)-N-((trans)-4-((1,1-Difluoropropan-2-yl)amino)cyclohexyl)-3-(quinolin-8-yloxy)cyclobutanecarboxamide] | 100 to 1000 nM
O=C(O)c1csc(NC(=O)[C@H]2C[C@H](Oc3cccc4cccnc34)C2)n1 [Example 193, 2-((trans)-3-(Quinolin-8-yloxy)cyclobutanecarboxamido)thiazole-4-carboxylic acid] | 10 to 79.4 nM
